Reference: patent US20250170098A1, “MOLECULAR JACKHAMMER FOR MECHANICAL DESTRUCTION OF CELLULAR STRUCTURE” (William Marsh Rice University, priority 2022, published 2025)

What was measured:
A375 cells [1] = assay: Crystal violet cell viability assay; assay type: cell-based, human; settings: 2 μM; 10 min 730 nm light at 80 mW/cm^2
Procedure: Crystal violet cell viability assay. The crystal violet assay was used to measures the cell viability. The principle of this method is that the viable cells adhere to the surface of the cell culture dish and keep growing and remain attached through the standard cell culture conditions during a period of 1-2 days and through the staining conditions in the assay. […] For specific details, A375 cells were harvested and counted, and then 20,000 A375 cells per well were added in 24 cell culture well plate (Corning) and cultured for 1 day at standard incubation conditions of 37° C. and 5% CO2. The cells were treated in four experimental groups (4 samples per group): group 1) 0.1% DMSO, group 2) 0.1% DMSO+NIR light treatment, group 3) 2 μM Cy7.5-amine, and group 4) 2 μM Cy7.5-amine+NIR light. The treatments with 0.1% DMSO or 2 μM Cy7.5-amine were done by adding those respective concentrations to the cells in the media and then incubated for 60 min. Immediately after the incubation, the cells in the groups with “+NIR light”, were treated with 730 nm light at 80 mW/cm^2 for 10 min. After the treatment with NIR light, the media in all the groups was removed and fresh media was added. […] Then the crystal violet was quantified by its absorbance at 570 nm. The cell viability was calculated from the absorbance relative to the absorbance in the cells without any treatment. […]

A375 cells [2] = assay: Clonogenic assay; assay type: cell-based, human
Procedure: The clonogenic assay was conducted to confirm that cancer cells treated by plasmon-driven MJH are indeed death upon NIR-light activation (FIG. 18). Three molecules were analyzed: the most VDA active BL-204, medium active BL-141-2 and low active Cy7-amine. […] This was accomplished by incubating the MJH molecules with the A375 cells for 50 min and immediately activate the plasmon-driven MJH using 730 nm NIR-light at 80 mW/cm^2 for 10 min. This is considered a short contact time between the MJH and the A375 cells.
Clonogenic assay. A375 cells were seeded in 35 mm cell culture dishes at predetermined densities to allow for an approximately equal number of resultant colonies. The next day, cells were treated with Cy7.5-amine at variable concentration and with or without 730 nm light at 80 mWcm^−2 for 10 min. The cells were incubated with Cy7.5-amine for 50 min before the illumination, the media was replaced with fresh media after the illumination and cells were cultured for 6 days to allow for colony formation. Cells were then washed once with PBS and fixed-stained in a 0.5% (w/v) crystal violet in methanol/water solution (1:1) during 10 min. The excess of crystal violet was washed off with water, the plates were dried at room temperature and then the colonies were counted using ImageJ software version 1.52a, and the survival fraction was determined. All treatments were in triplicate.

[3] = system: A375 human melanoma tumors; assay: Treatment of A375 human melanoma tumors in nude mice; assay type: in vivo, mouse
Procedure: Preparation of fresh solution of 200 μM Cy7.5-amine and 2.5% DMSO for in vivo studies. In the day of treatment, fresh solution of 200 μM Cy7.5-amine was prepared by diluting in PBS buffer the 8 mM Cy7.5-amine stock in DMSO, the final dilution contained 2.5% DMSO. As control 2.5% DMSO in PBS buffer was used.
Injection of A375 cells subcutaneously in athymic nude mice to generate the human melanoma tumor model. The A375 cells were culture as described before. Cells were harvested from sub-confluent plates, ˜90%, and fresh media was added to the cells the day before harvesting. The cells were harvested using 0.05% trypsin-EDTA (Gibco, 25-300-054). The harvested cells were re-dispersed in DMEM media without supplements at 50×10^6 cells mL^−1. The cell suspension was kept in ice. Then 100 μL of cells were injected per mouse (this was 5 million of cells per mouse) subcutaneously in the right flank of 7-8 weeks old female athymic nude mouse. Starting at day 2 the tumors were measured using a caliper. The typical volume of the tumors at day 2 was ˜33 mm^3. The volume of the tumor was calculated as: (½)×length×width×height. When the height was not possible to measure in the case of the tumors that were too small (usually <100 mm^3), then the tumor volume was calculated as: (½)×length×width^2.
Treatment of A375 tumors with Cy7.5-amine and NIR 730 nm light. The tumors were treated at day 3 (since 5 million initial cells were injected per tumor site) when the average tumors size was 35 mm^3. Forty mice were divided in 4 groups (number of mice per group, n=10): 1) Cy7.5-amine only 2) 2.5% DMSO only, 3) 2.5% DMSO+Light and 3) Cy7.5-amine+light. The day of treatment, fresh solutions (200 μM of Cy7.5-amine in PBS and controls 2.5% DMSO in PBS) were prepared as described before. The mice were anesthetized with isoflurane using a vaporizer. Then, each mouse was injected with 50 μL of 200 μM Cy7.5-amine solution in PBS or 2.5% DMSO, intratumorally. Then mice were kept for 25 min in the cages to let the Cy7.5-amine solution or DMSO solution interact with the tumors. Then, after the 25 min of incubation, the mice were treated (under anesthesia, using isoflurane) with 730 nm LED light source from Prizmatix applying a power intensity of 150 mWcm^−2 for 5 min (other power intensities were 210 mWcm^−2 for 5 min and 300 mWcm^−2 for 5 min as described in the treatment schedule in FIG. 27F). The light intensity was measured using an Optical Power Meter from Thorlabs, sensor model S302C and console model PM100D. When the treatment was finished the mice were put back into the cages and housed in the animal facility. The tumors sizes were measured every other day using a caliper in the first 20 days of the study and then in the late stage of the study twice a week.

SMILES: CN1/C(=C\C=C2C=C(/C=C/C3=[N+](CCCCCC(=O)NCCCCCCN)c4ccc5ccccc5c4C3(C)C)CCC\2)C(C)(C)c2c1ccc1ccccc21 [Cy7.5-amine]
- dead cells by crystal violet assay (A375 cells [1]): 99.9%
- cells eradicated, clonogenic assay (A375 cells [2]; 0.5 μM, 10 min 730 nm light at 80 mWcm^−2): 100%
- eradication of A375 cells, clonogenic assay (in words) (A375 cells [2]; 1 μM + light (80 mWcm^−2 of 730 nm for 10 min)): complete eradication
- mice tumor free ([3]; 8 μg intratumoral + light (300 mWcm^−2 of 730 nm LED for 5 min)): 50%
- survival rate of mice with A375 tumors ([3]; 8 μg intratumoral + light (300 mWcm^−2 of 730 nm LED for 5 min), day 120): 60%
- effect on size of A375 tumors ([3]; 150-215 mWCm^−2): mild therapeutic effect
- effect on size of A375 tumors ([3]; 300 mWCm^−2): strong effect on the regression of the tumor size
- survival of mice with A375 tumors ([3]; Cy7.5-amine group without light): 20%
